# Results taken from ChEMBL document CHEMBL1201862, “PubChem BioAssay data set” (2004).
#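 Results reflect a 48-hour exposure of cells in 96-well plates to compound at five concentrations. GI50 marks 50% less growth.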 Activity calls are given as the source filed them. No stated cut-off is given here; in the data, active = GI50 up to about 1.1 µM and inactive = higher.
# Assays:
# Assay in all cases: growth of human tumour cells (NCI), 48 h
# [1] = tested on: 786-0
# [2] = tested on: A498
# [3] = tested on: A549
# [4] = tested on: ACHN
# [5] = tested on: CCRF-CEM
# [6] = tested on: COLO 205
# [7] = tested on: DLD-1
# [8] = tested on: DMS-114
# [9] = tested on: DMS-273
# [10] = tested on: EKVX
# [11] = tested on: HCC 2998
# [12] = tested on: HCT-116
# [13] = tested on: HCT-15
# [14] = tested on: HL-60
# [15] = tested on: HOP-18
# [16] = tested on: HOP-62
# [17] = tested on: HOP-92
# [18] = tested on: HT-29
# [19] = tested on: IGROV-1
# [20] = tested on: K562
# [21] = tested on: KM-20L2
# [22] = tested on: KM12
# [23] = tested on: LOX IMVI
# [24] = tested on: LXFL 529
# [25] = tested on: M14
# [26] = tested on: M19-MEL
# [27] = tested on: MOLT-4
# [28] = tested on: Malme-3M
# [29] = tested on: NCI-H226
# [30] = tested on: NCI-H23
# [31] = tested on: NCI-H460
# [32] = tested on: NCI-H522
# [33] = tested on: OVCAR-3
# [34] = tested on: OVCAR-4
# [35] = tested on: OVCAR-5
# [36] = tested on: OVCAR-8
# [37] = tested on: RPMI-8226
# [38] = tested on: RXF 393
# [39] = tested on: SF-268
# [40] = tested on: SF-295
# [41] = tested on: SF-539
# [42] = tested on: SK-MEL-28
# [43] = tested on: SK-MEL-2
# [44] = tested on: SK-MEL-5
# [45] = tested on: SK-OV-3
# [46] = tested on: SNB-78
# [47] = tested on: SR
# [48] = tested on: SW-620
# [49] = tested on: TK-10
# [50] = tested on: U-251
# [51] = tested on: UACC-257
# [52] = tested on: UACC-62
# [53] = tested on: UO-31
# [54] = tested on: XF498
# [55] = tested on: CAKI-1
# [56] = tested on: SN12C
# [57] = tested on: SNB-75
compound,measurement,setting,value
CCCCNS(=O)(=O)c1ccc(-c2ccc3c(c2)-c2ccc(S(=O)(=O)NCCCC)cc2S3(=O)=O)cc1,GI50,[1],11.6 µM (inactive)
same,GI50,[2],11.4 µM (inactive)
same,GI50,[3],14 µM (inactive)
same,GI50,[4],21.6 µM (inactive)
same,GI50,[5],26.1 µM (inactive)
same,GI50,[6],25.3 µM (inactive)
same,GI50,[7],43.6 µM (inactive)
same,GI50,[8],7.52 µM (inactive)
same,GI50,[9],20 µM (inactive)
same,GI50,[10],39.4 µM (inactive)
same,GI50,[11],> 100 µM (inactive)
same,GI50,[12],14.9 µM (inactive)
same,GI50,[13],72.8 µM
same,GI50,[14],> 100 µM (inactive)
same,GI50,[15],20.7 µM (inactive)
same,GI50,[16],14.9 µM (inactive)
same,GI50,[17],19.3 µM (inactive)
same,GI50,[18],19.2 µM (inactive)
same,GI50,[19],32.8 µM (inactive)
same,GI50,[20],3.03 µM (inactive)
same,GI50,[21],4.15 µM (inactive)
same,GI50,[22],22.9 µM (inactive)
same,GI50,[23],15 µM (inactive)
same,GI50,[24],13.2 µM (inactive)
same,GI50,[25],17.3 µM (inactive)
same,GI50,[26],21.5 µM (inactive)
same,GI50,[27],> 100 µM (inactive)
same,GI50,[28],14.9 µM (inactive)
same,GI50,[29],12.6 µM (inactive)
same,GI50,[30],12.7 µM (inactive)
same,GI50,[31],10.4 µM (inactive)
same,GI50,[32],14.5 µM (inactive)
same,GI50,[33],24.9 µM (inactive)
same,GI50,[34],2.65 µM (inactive)
same,GI50,[35],> 100 µM (inactive)
same,GI50,[36],7.98 µM (inactive)
same,GI50,[37],27.9 µM (inactive)
same,GI50,[38],10.8 µM (inactive)
same,GI50,[39],9.48 µM (inactive)
same,GI50,[40],15 µM (inactive)
same,GI50,[41],12.1 µM (inactive)
same,GI50,[42],10 µM (inactive)
same,GI50,[43],12.9 µM (inactive)
same,GI50,[44],2.18 µM (inactive)
same,GI50,[45],16.9 µM (inactive)
same,GI50,[46],12.4 µM (inactive)
same,GI50,[47],72.1 µM (inactive)
same,GI50,[48],15.2 µM (inactive)
same,GI50,[49],28.8 µM (inactive)
same,GI50,[50],23 µM (inactive)
same,GI50,[51],13.1 µM (inactive)
same,GI50,[52],13.2 µM (inactive)
same,GI50,[53],42.5 µM (inactive)
same,GI50,[54],10.3 µM (inactive)
C/C(=N\NS(=O)(=O)c1ccccc1)c1ccc(Cl)c(Cl)c1,GI50,[1],82.2 µM (inactive)
same,GI50,[2],41.8 µM (inactive)
same,GI50,[3],46.2 µM (inactive)
same,GI50,[4],46.6 µM (inactive)
same,GI50,[55],75.2 µM (inactive)
same,GI50,[5],> 100 µM (inactive)
same,GI50,[6],26.2 µM (inactive)
same,GI50,[7],41.8 µM (inactive)
same,GI50,[8],39.2 µM (inactive)
same,GI50,[9],85.3 µM (inactive)
same,GI50,[10],67.3 µM (inactive)
same,GI50,[11],71.1 µM (inactive)
same,GI50,[12],50.9 µM (inactive)
same,GI50,[13],57 µM
same,GI50,[14],97.3 µM (inactive)
same,GI50,[15],49.8 µM (inactive)
same,GI50,[16],61.5 µM (inactive)
same,GI50,[17],67 µM (inactive)
same,GI50,[18],44.7 µM (inactive)
same,GI50,[19],72.9 µM (inactive)
same,GI50,[20],86.5 µM (inactive)
same,GI50,[21],72.8 µM (inactive)
same,GI50,[22],71.1 µM (inactive)
same,GI50,[23],78.9 µM (inactive)
same,GI50,[24],34.5 µM (inactive)
same,GI50,[25],45.3 µM (inactive)
same,GI50,[26],57.4 µM (inactive)
same,GI50,[27],47.8 µM (inactive)
same,GI50,[28],68.2 µM (inactive)
same,GI50,[29],62.8 µM (inactive)
same,GI50,[30],75.3 µM (inactive)
same,GI50,[31],46.1 µM (inactive)
same,GI50,[33],25.3 µM (inactive)
same,GI50,[34],58.9 µM (inactive)
same,GI50,[35],> 100 µM (inactive)
same,GI50,[36],40.6 µM (inactive)
same,GI50,[37],67.5 µM (inactive)
same,GI50,[38],55.3 µM (inactive)
same,GI50,[39],> 100 µM (inactive)
same,GI50,[40],46.3 µM (inactive)
same,GI50,[41],43 µM (inactive)
same,GI50,[42],63.4 µM (inactive)
same,GI50,[43],> 100 µM (inactive)
same,GI50,[44],42.5 µM (inactive)
same,GI50,[45],67.3 µM (inactive)
same,GI50,[56],45.4 µM (inactive)
same,GI50,[57],50 µM (inactive)
same,GI50,[46],> 100 µM (inactive)
same,GI50,[47],62.2 µM (inactive)
same,GI50,[48],> 100 µM (inactive)
same,GI50,[49],50.1 µM (inactive)
same,GI50,[50],37.2 µM (inactive)
same,GI50,[51],50 µM (inactive)
same,GI50,[52],95.5 µM (inactive)
same,GI50,[53],45.4 µM (inactive)
same,GI50,[54],> 100 µM (inactive)
